This passage reports AC50 results from ChEMBL document CHEMBL5291721, “A preclinical secondary pharmacology resource illuminates target-adverse drug reaction associations of marketed drugs” (Nat Commun, 2023).

Each structure is given as a SMILES string.

Assay [1] addresses Gamma-aminobutyric acid receptor subunit alpha-1 (Rattus norvegicus, UniProt P62813).
Assay [2] has as its target T1, Adenosine receptor A3 (Homo sapiens, UniProt P0DMS8).
T1 sequence (P0DMS8 whole entry): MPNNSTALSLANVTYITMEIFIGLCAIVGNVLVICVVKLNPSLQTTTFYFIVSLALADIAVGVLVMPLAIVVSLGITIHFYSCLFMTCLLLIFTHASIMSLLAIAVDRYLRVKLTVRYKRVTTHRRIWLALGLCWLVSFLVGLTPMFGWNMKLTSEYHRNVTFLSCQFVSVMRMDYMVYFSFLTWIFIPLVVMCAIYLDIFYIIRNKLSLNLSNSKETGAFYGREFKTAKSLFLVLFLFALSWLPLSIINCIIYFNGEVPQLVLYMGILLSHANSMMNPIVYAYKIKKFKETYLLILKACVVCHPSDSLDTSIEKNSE

The target in assay [3] is Histamine H1 receptor (Homo sapiens, UniProt P35367).
Histamine H1 receptor, sequence (P35367 whole entry): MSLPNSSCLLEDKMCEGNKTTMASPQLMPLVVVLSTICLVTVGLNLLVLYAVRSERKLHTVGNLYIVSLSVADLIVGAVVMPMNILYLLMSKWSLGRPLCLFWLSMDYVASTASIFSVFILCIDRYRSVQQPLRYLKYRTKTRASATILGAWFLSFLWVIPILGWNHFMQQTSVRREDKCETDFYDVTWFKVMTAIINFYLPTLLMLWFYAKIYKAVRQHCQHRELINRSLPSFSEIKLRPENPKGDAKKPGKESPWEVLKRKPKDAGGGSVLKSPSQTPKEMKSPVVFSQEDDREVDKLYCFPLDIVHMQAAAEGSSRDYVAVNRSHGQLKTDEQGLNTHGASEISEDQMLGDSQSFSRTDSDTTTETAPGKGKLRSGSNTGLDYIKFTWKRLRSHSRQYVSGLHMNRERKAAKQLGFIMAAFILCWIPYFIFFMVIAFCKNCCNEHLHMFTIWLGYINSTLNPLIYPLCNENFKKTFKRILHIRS
For assay [4], the target named is T2, Muscarinic acetylcholine receptor M2 (Homo sapiens, UniProt P08172).
T2 sequence (P08172 whole entry): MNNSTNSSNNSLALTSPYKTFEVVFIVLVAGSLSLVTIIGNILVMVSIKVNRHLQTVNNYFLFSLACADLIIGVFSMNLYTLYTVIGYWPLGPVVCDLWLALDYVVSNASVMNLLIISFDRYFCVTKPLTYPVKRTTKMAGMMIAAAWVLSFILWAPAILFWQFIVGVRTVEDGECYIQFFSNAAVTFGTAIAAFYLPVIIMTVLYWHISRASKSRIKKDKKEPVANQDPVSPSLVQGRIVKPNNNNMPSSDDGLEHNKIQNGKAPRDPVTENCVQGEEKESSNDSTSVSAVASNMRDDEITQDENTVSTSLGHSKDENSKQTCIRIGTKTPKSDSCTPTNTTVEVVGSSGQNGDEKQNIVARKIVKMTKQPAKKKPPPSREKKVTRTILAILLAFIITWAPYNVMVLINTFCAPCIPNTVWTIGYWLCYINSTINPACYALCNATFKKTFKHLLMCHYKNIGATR
The format is functional, cell-based.

The target of assay [5] is T3, Prostaglandin G/H synthase 1 (Rattus norvegicus, UniProt Q63921).
T3 sequence (Q63921 whole entry): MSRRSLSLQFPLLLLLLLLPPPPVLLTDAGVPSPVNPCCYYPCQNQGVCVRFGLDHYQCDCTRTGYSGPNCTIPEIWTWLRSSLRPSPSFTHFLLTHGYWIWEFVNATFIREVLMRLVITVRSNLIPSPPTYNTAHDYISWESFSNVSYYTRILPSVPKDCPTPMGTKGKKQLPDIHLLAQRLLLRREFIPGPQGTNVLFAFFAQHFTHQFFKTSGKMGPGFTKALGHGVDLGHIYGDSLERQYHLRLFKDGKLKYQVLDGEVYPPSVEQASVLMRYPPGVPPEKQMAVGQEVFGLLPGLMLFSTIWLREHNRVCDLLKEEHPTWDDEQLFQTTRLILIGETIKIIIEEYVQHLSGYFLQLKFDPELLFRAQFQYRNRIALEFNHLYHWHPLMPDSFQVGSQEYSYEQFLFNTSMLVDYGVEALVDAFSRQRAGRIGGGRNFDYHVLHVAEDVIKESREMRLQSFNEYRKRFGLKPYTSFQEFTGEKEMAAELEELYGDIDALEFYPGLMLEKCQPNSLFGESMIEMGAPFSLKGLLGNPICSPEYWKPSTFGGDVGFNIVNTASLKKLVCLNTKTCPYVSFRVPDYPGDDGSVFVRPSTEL
The format is functional.

Assay [6] concerns the target T4, Alpha-2B adrenergic receptor (Homo sapiens, UniProt P18089).
T4 sequence (P18089 whole entry): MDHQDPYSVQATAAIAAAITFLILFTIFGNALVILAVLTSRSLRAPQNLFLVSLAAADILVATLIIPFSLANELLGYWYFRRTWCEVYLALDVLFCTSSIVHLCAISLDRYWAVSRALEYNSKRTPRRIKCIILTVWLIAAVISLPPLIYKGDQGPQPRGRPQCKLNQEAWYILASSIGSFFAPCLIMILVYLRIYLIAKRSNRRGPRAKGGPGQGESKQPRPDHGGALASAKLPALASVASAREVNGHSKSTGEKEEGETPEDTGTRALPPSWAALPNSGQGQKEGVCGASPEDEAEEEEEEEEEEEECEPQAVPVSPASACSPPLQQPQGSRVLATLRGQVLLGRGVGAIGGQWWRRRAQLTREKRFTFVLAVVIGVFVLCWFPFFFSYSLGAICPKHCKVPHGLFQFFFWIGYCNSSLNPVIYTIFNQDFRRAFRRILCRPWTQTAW

For assay [7], the target named is T5, Muscarinic acetylcholine receptor M1 (Homo sapiens, UniProt P11229).
T5 sequence (P11229 whole entry): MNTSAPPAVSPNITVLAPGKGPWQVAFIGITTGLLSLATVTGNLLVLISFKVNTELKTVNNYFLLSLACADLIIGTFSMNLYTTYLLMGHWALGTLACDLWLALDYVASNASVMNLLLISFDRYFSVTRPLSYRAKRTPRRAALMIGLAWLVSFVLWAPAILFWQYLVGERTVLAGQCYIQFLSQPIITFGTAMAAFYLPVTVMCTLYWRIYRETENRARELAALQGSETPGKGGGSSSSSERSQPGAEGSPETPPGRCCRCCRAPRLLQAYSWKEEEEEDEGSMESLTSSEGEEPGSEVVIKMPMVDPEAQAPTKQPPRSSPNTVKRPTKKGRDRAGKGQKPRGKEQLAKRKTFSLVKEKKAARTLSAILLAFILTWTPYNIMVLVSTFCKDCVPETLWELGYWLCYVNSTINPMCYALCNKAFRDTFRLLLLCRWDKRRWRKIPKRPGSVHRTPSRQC
Type of assay: functional.

Assay [8] addresses Delta-type opioid receptor (Homo sapiens, UniProt P41143).
Note: assay procedure not described here.

Delta-type opioid receptor, sequence (P41143 whole entry): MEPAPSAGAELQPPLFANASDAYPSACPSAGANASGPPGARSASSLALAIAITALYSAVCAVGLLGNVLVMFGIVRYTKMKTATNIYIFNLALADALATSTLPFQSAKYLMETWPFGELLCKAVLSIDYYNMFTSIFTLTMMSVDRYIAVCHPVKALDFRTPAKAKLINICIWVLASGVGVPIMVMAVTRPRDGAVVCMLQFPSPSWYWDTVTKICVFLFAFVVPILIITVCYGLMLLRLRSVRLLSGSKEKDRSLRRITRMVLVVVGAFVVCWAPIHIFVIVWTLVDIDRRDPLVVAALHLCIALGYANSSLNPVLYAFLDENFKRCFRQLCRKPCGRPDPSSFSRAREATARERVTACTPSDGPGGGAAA
Gamma-aminobutyric acid receptor subunit alpha-1, sequence (P62813 whole entry): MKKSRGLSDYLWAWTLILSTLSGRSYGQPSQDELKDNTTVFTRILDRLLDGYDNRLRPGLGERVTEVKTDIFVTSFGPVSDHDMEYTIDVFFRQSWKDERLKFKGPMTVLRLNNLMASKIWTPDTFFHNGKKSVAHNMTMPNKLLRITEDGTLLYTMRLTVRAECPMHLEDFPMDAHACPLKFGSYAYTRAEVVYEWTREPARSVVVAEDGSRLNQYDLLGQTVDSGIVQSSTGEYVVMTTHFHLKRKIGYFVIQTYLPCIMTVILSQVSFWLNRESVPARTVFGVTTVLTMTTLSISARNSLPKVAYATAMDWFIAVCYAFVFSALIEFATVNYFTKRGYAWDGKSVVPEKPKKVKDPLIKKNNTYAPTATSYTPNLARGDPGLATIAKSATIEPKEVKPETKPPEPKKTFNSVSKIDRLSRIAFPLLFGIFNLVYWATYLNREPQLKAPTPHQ

By AC50 is commonly meant the concentration at which the activity in the assay is half-maximal. High values mean activity only at high concentration, low ones activity at low concentration. For `C[N+](C)(C)CC(=O)O` [BETAINE], the AC50 in assay [1], in assay [2], in assay [3], in assay [4], in assay [5] and in assay [6] was above 30 µM each time. Moreover, the AC50 in assay [7] and in assay [8] was above 30 µM in each case.

For the molecule `CCCC(=O)N1CCCN(c2nc(N)c3cc(OC)c(OC)cc3n2)CC1` [BUNAZOSIN], the AC50 in assay [1] is above 30 µM; in assay [2] it was above 30 µM; in assay [3], above 30 µM; in assay [4], above 30 µM; in assay [5] it was above 30 µM; in assay [6] it was 1.7 µM. In addition, the AC50 in assay [7] and in assay [8] was above 30 µM throughout.

On to `NS(=O)(=O)c1cc2c(cc1Cl)NC(CC1CCCC1)NS2(=O)=O` (configuration not stated) [CYCLOPENTHIAZIDE], for which the AC50 is above 30 µM in assay [1]; above 30 µM in assay [3]; 17 µM in assay [6]; above 30 µM in assay [7]; above 30 µM in assay [8].

Take `CC(=O)N(CC(O)CO)c1c(I)c(C(=O)NCC(O)CO)c(I)c(C(=O)NCC(O)CO)c1I` (configuration not stated) [IOHEXOL]: the AC50 in assay [1] is above 10 µM; in assay [2] it was above 30 µM; in assay [3], above 10 µM; in assay [4] it was above 10 µM; in assay [5], above 30 µM; in assay [6], above 10 µM. Also, the AC50 in assay [7] is above 10 µM; in assay [8], above 30 µM.

For the molecule `CC(C)(N)Cc1ccc(Cl)cc1` [CHLORPHENTERMINE], the AC50 in assay [1] was above 10 µM; in assay [2], above 30 µM; in assay [3], 14 µM; in assay [4] it was above 10 µM; in assay [5], above 30 µM; in assay [6], above 10 µM. Further, the AC50 is above 10 µM in assay [7] and above 30 µM in assay [8].

In the case of `CC(C(O)c1ccc(O)cc1)N1CCC(Cc2ccccc2)CC1` (configuration not stated) [IFENPRODIL], the concentration at half-maximal activity (AC50) is above 30 µM in assay [1]; above 30 µM in assay [2]; 1 µM in assay [3]; above 30 µM in assay [4]; above 30 µM in assay [5]; 0.44 µM in assay [6]. In addition, the AC50 in assay [7] and in assay [8] was above 30 µM throughout.

On to `O=C1CCC(N2C(=O)c3ccccc3C2=O)C(=O)N1` (configuration not stated) [THALIDOMIDE], for which the AC50 was above 10 µM in assay [1]; above 30 µM in assay [2]; above 10 µM in assay [4]; above 30 µM in assay [5]; above 30 µM in assay [8].

As to `CC(C)NCC1CCc2cc(CO)c([N+](=O)[O-])cc2N1` (configuration not stated) [OXAMNIQUINE], the AC50 in assay [1], in assay [2], in assay [3], in assay [4], in assay [5] and in assay [6] was above 10 µM each time. Besides, the AC50 in assay [7] is above 10 µM; in assay [8] it was above 30 µM.

Regarding `CN(C)[C@@H]1C(O)=C(C(N)=O)C(=O)[C@@]2(O)C(O)=C3C(=O)c4c(O)ccc(Cl)c4[C@@H](O)[C@H]3C[C@@H]12` [DEMECLOCYCLINE], the AC50 in assay [1], in assay [2], in assay [3], in assay [4], in assay [5] and in assay [6] was above 10 µM throughout. The figures for the AC50 in assay [7] and in assay [8] were above 10 µM and above 30 µM, respectively.

For `Nc1ccc(/N=N/c2ccccc2)c(N)n1` [PHENAZOPYRIDINE], the AC50 in assay [1] is above 30 µM; in assay [3], 4.5 µM; in assay [4] it was above 30 µM; in assay [6] it was 3.2 µM; in assay [7] it was 4.1 µM; in assay [8] it was 2.9 µM.

As to `CO/N=C(\C(=O)N[C@@H]1C(=O)N2C(C(=O)OCOC(=O)C(C)(C)C)=C(C)CS[C@H]12)c1csc(N)n1`, the AC50 in assay [1], in assay [3], in assay [6], in assay [7] and in assay [8] was above 30 µM throughout.

In the case of `COCC1=C(C(=O)OC(C)OC(=O)OC(C)C)N2C(=O)[C@@H](NC(=O)/C(=N\OC)c3csc(N)n3)[C@H]2SC1` (some centres not stated) [CEFPODOXIME PROXETIL], the AC50 in assay [1], in assay [3], in assay [4], in assay [6], in assay [7] and in assay [8] was above 30 µM in each case.

Take `CN1C(=O)N(C)C2C1N(C)C(=O)N2C` (configuration not stated) [MEBICAR]: the AC50 in assay [1], in assay [3], in assay [4], in assay [6], in assay [7] and in assay [8] was above 30 µM throughout.

For the molecule `CN(CCCN1c2ccccc2CCc2ccccc21)CC(=O)c1ccc(Cl)cc1` [LOFEPRAMINE], the AC50 is above 30 µM in assay [1]; 18 µM in assay [2]; 0.65 µM in assay [3]; above 30 µM in assay [4]; 1.3 µM in assay [5]; 4 µM in assay [6]. The molecule also displayed an AC50 in assay [8] of 30 µM.

In the case of `CN(C)CCCN1c2ccccc2Sc2ccccc21` [PROMAZINE], the AC50 in assay [1] was above 10 µM; in assay [2] it was above 30 µM; in assay [4], above 10 µM; in assay [5] it was above 30 µM; in assay [8] it was above 10 µM.

In the case of `N/N=c1/cc2c(n[nH]1)CCN(C(=O)c1ccccc1)C2` [ENDRALAZINE], the AC50 in assay [1], in assay [3], in assay [6], in assay [7] and in assay [8] was above 30 µM throughout.

In the case of `CC(=O)O[C@]1(C(C)=O)CC[C@H]2[C@@H]3C[C@H](C)C4=CC(=O)CC[C@]4(C)[C@H]3CC[C@@]21C` [MEDROXYPROGESTERONE ACETATE], the AC50 in assay [2] and in assay [5] was above 30 µM throughout.

Take `O=P(O)(O)C(O)(Cc1cccnc1)P(=O)(O)O` [RISEDRONIC ACID]: the AC50 in assay [1], in assay [2], in assay [4], in assay [5] and in assay [8] was above 30 µM in each case.

Turning to `C[N+](C)(C)CCOC(N)=O` [CARBAMOYLCHOLINE], the AC50 in assay [1] was above 10 µM; in assay [2], above 10 µM; in assay [5] it was above 10 µM; in assay [8] it was above 30 µM.
